Active and inactive are the calls of the source. The rule behind the calls is not given here. Where only a bound is given, the exact number is not on record here.

Data on 43 compounds can be found in PubChem BioAssay AID1549 (Sanford-Burnham Center for Chemical Genomics, 2009).

This assay concerns the target Influenza A virus M2 proton channel (A/TW/4845/1999 H1N1). The assay is described as follows: NMR binding screen, influenza A virus M2 proton channel, Kd (AID 1549). As to conditions: M2 protein.
By Kd is commonly meant the concentration at which binding is half-saturated. For `N#Cc1sc2nc3c(c(-c4cccnc4)c2c1N)CCC3`, the Kd was > 4 mM (inactive). As for `COC(=O)c1c(OC)cc2c(c1C)Oc1c(Cl)c(OC(C)=O)c(Cl)c(C)c1C(=O)O2`, the figure is > 4 mM (inactive); as for `N=Nc1c(O)[nH]c2ccccc12`, > 4 mM (inactive); as for `CSc1nc(C)cc(Oc2ccc(=O)n(C)n2)n1`, > 4 mM (inactive). For `C/C1=C/CC(C)(C)/C=C/C/C(C)=C/CC1`, the Kd is > 4 mM (inactive). Turning to `O=C(Nc1ccccc1[N+](=O)[O-])c1ccc(=O)[nH]n1`, the Kd was > 4 mM (inactive).

As for `NC(=O)COc1ccccc1O`, the Kd is > 4 mM (inactive).

For `O=C(C1CCC(C(=O)N2CCCC2)CC1)N1CCCC1` (stereo not drawn), the Kd is > 4 mM (inactive). Then `N#CCc1nc2ccccc2s1`, with > 4 mM (inactive). As to `O=C1C2C3C=CC(C3)C2C(=O)N1c1cccnc1` (stereo not drawn), the Kd is > 4 mM (inactive). On to `CC(=O)c1c(O)c(C)c(O)c2c1OC1=CC(=O)C(C(C)=O)C(=O)C12C` (stereo not drawn), for which the Kd is > 4 mM (inactive).

Turning to `CC(C)n1c(-c2ccncc2)n[nH]c1=S`, the Kd was > 4 mM (inactive). As to `NCc1ccc2occc2c1`, the Kd was > 4 mM (inactive). With `CSc1nc(-c2ccco2)nn1S(C)(=O)=O`, the Kd is > 4 mM (inactive).

As to `CCn1ccc(C(=O)Nc2nccs2)n1`, the Kd was > 4 mM (inactive). As to `Fc1ccc(-c2n[nH]c(=S)n2CC2CCCO2)cc1` (stereo not drawn), the Kd was > 4 mM (inactive).

`NC(=O)CSc1ccc(-c2ccccc2)nn1`: the Kd is > 4 mM (inactive). Regarding `COc1cc2c(c(OC)c1OC)-c1ccc(O)c(=O)cc1[C@@H](NC(C)=O)CC2`, the Kd was > 4 mM (inactive). In the case of `O=c1c(O)c(-c2ccc(O)c(O)c2)oc2cc(O)ccc12`, the Kd was > 4 mM (inactive). As to `Cc1cc(N)on1`, the Kd was > 4 mM (inactive). `CN1CCN(C(=O)/C=C\C(=O)O)CC1`: the Kd is > 4 mM (inactive).

With `C=C[C@@H](C1=CC(=O)C(OC)=C(OC)C1=O)c1ccccc1`, the Kd was > 4 mM (inactive). With `CC(=O)Nc1cnn(-c2ccccc2)c(=O)c1Cl`, the Kd is > 4 mM (inactive). As for `Nc1ccc2nccnc2c1`, the Kd was > 4 mM (inactive). As to `O=C1CC(c2ccccc2)n2ncnc2N1` (stereo not drawn), the Kd was > 4 mM (inactive). As for `CCN1CCC(=NO)CC1`, the figure is > 4 mM (inactive); as for `O=C1C=C(Nc2ccccc2O)c2ccccc2C1=O`, > 4 mM (inactive).

Take `O=C1NC(=S)N/C1=C\c1cccnc1`: the Kd was > 4 mM (inactive).

With `OC(CCl)c1ccc(-n2cncn2)cc1` (stereo not drawn), the Kd is > 4 mM (inactive). As for `OC1CC2CCC1C2` (stereo not drawn), the figure is > 4 mM (inactive). On to `Cn1nnc2cc(CN)ccc21`, for which the Kd is > 4 mM (inactive).

With `c1ccc2c(c1)CN1CCCC1=N2`, the Kd is > 4 mM (inactive). On to `Cc1occc1C(=O)Nc1ccc(C(N)=O)cc1`, for which the Kd is > 4 mM (inactive). Regarding `CC(=O)Nc1nnc(-c2ccccn2)o1`, the Kd is > 4 mM (inactive). Turning to `O=C(c1ccco1)N1CCN(c2ccc(Cl)cc2)CC1`, the Kd was > 4 mM (inactive). Turning to `Cc1nc2c(n1O)CCc1c-2no[n+]1[O-]`, the Kd is > 4 mM (inactive). On to `O=C1CC(N2CCC(O)CC2)C(=O)N1c1ccc(F)cc1` (stereo not drawn), for which the Kd is > 4 mM (inactive). As for `CC(C)=CC(=O)Nc1ccc2c(c1)OCO2`, the figure is > 4 mM (inactive). Regarding `OCC1Cc2ccccc2CN1` (stereo not drawn), the Kd is > 4 mM (inactive).

`Oc1ccccc1N1CCCC1`: the Kd was > 4 mM (inactive). Turning to `O=CN1CCN(C(=O)c2ccccc2Cl)CC1`, the Kd was > 4 mM (inactive).

On to `COc1ccccc1C(=O)Nc1ccccn1`, for which the Kd is > 4 mM (inactive). Turning to `Cn1c(=O)[nH]c(=O)c2c1ncn2CCN1CCCCC1`, the Kd is > 4 mM (inactive).
